Assay results reported in publication PMC10195864, “Stereochemical engineering yields a multifunctional peptide macrocycle inhibitor of Akt2 by fine-tuning macrocycle-cell membrane interactions” (Communications Chemistry, 2023).
Values joined by “and” are separate entries in the source; they are usually repeats but may differ in a detail not shown here. Equal values may be shown once. “Also recorded” adds a separate entry of the source. Read-outs that look alike come from different tables or passages of the source. Positions of bridges follow the written chain, without caps; N, C: chain ends. Non-standard residues stand in square brackets, D forms with d. Residues, ends and D or L forms follow the SMILES beside them. R8 = C=CCCCCCC[C@@](C)(N)C(=O)O; S5 = C=CCCC[C@](C)(N)C(=O)O

Assays:
[1] = target: T1, pAkt2 (active His6-tagged Akt2) (Homo sapiens, UniProt P31751); assay: ELISA for peptides against full-length pAkt2 protein (serial dilution); format: binding; settings: biotinylated ligand immobilized, His6-pAkt2 titrated
T1 construct: purchased Abcam
T1 sequence (P31751 whole entry): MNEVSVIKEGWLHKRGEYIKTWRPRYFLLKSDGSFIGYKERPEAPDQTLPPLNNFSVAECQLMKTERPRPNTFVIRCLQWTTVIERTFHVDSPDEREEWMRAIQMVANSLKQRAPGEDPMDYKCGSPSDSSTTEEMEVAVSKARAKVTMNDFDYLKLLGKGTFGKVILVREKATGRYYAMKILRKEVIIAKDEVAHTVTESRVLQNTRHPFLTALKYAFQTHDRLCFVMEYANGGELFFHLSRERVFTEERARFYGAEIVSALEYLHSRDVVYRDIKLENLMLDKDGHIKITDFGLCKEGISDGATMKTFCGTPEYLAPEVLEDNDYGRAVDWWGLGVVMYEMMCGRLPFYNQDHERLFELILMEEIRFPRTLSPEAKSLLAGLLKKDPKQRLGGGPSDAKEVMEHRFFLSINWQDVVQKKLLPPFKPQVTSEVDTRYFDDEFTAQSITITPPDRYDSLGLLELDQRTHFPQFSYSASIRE
Experimental: A total of 2 μM solution of each biotinylated peptide was prepared in binding buffer. A total of 100 μL of each solution was added to each well of a High-Capacity Streptavidin 96 well plate (Thermo Scientific), and the plate was shaken for 2 h at room temperature. The wells were blocked with 5% milk in 25 mM tris chloride, pH = 7.4, 150 mM NaCl and 0.05% Tween 20 (TBST). The wells were washed with binding buffer five times. Serial dilutions of active His6-tagged Akt2 were made in the binding buffer. A total of 100 μL of each solution was added per well, and the plate was shaken overnight at 4 °C. The wells were washed three times with the binding buffer, then treated for an hour with a 1:1000 dilution of anti 6X His mouse monoclonal [HIS.H8] antibody. A 1:10,000 dilution of goat anti-mouse antibody-Horse Radish Peroxide conjugate in binding buffer was added to the wells for an hour. The plate was washed three times with TBST and once with TBS (25 mM tris chloride, pH = 7.5, 150 mM NaCl), treated with TMB substrate (KPL), and quenched with sulfuric acid, and the absorbance at 450 nm wavelength measured. From the absorbance values at 450 nm wavelength (A450) for each protein concentration, the corresponding blank A450 (no ligand immobilized, same concentration of protein added) was subtracted. They were then fitted by non-linear regression in GraphPad Prism 6.

[2] = tested on: recombinant Akt3; design: method as in PMID 25329478; settings: recombinant Akt; cited from earlier work
[3] = target: T2, pAkt2 (Homo sapiens, UniProt P31751); assay: Protein selectivity ELISA, 25 nM protein; format: binding; settings: for binding to pAkt2: single-point ELISA, 25 nM protein, A450
T2 construct: purchased Abcam
T2 sequence (P31751 whole entry): as above
Experimental: A total of 1.25 μM biotinylated ligand was prepared by diluting the 1 mM stock in binding buffer (0.1% BSA, 25 mM trisCl, pH = 7.5, 150 mM NaCl, 0.05% Tween20). The prepared ligand solution or 0.125% DMSO (buffer control) in binding buffer was immobilized on a High-Capacity Streptavidin 96 well plate (Thermo Scientific). After washing the excess ligand, the plate was blocked overnight with 1% BSA in TBST. […] After three washes with the binding buffer, the plate was treated for an hour with a 1:1000 dilution of anti-His6 mouse monoclonal antibody in the binding buffer. A 1:10,000 dilution of goat anti-mouse antibody conjugated to Horse Radish Peroxide in binding buffer was added to the wells. The plates were washed four times, five minutes each, with TBST and once with TBS. The color was developed by adding TMB substrate to each well. The reaction was quenched with 0.5 M H2SO4. The absorbance values at 450 nm (A450) were measured on a 96-well plate reader. The Net A450 was obtained by subtracting the absorbance value for the blank control (no immobilized ligand) from each triplicate value obtained for the ligand–epitope interaction.

[4] = target: T3, target phosphopeptide epitope, Akt2 amino acids 450–481 (pS474) (Homo sapiens, UniProt P31751); assay: Epitope selectivity ELISA, 2.5 µM His6-tagged epitope; format: binding; settings: 1.25 µM ligand immobilized, 2.5 µM epitope
T3 construct: made in house; host or cells: chemical solid-phase peptide synthesis
T3 sequence (P31751 450-481 limits assumed): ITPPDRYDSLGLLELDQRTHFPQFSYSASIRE
Experimental: A total of 1.25 μM biotinylated ligand was prepared by diluting the 1 mM stock in binding buffer (0.1% BSA, 25 mM trisCl, pH = 7.5, 150 mM NaCl, 0.05% Tween20). The prepared ligand solution or 0.125% DMSO (buffer control) in binding buffer was immobilized on a High-Capacity Streptavidin 96 well plate (Thermo Scientific). After washing the excess ligand, the plate was blocked overnight with 1% BSA in TBST. 2.5 μM solutions of the His6-tagged target phosphopeptide epitope, Akt2 amino acids 450–481, or His6-tagged scrambled peptide was added to each of the wells and incubated overnight. After three washes with the binding buffer, the plate was treated for an hour with a 1:1000 dilution of anti-His6 mouse monoclonal antibody in the binding buffer. A 1:10,000 dilution of goat anti-mouse antibody conjugated to Horse Radish Peroxide in binding buffer was added to the wells. The plates were washed four times, five minutes each, with TBST and once with TBS. […] The absorbance values at 450 nm (A450) were measured on a 96-well plate reader. The Net A450 was obtained by subtracting the absorbance value for the blank control (no immobilized ligand) from each triplicate value obtained for the ligand–epitope interaction. […]
-FPQF(pS)YSAS-IRE and the scrambled epitope His6–Peg2-ITPPDRYDSLGLLELQRTH-YFFASQPSS-IRE overnight. […] The absorbance at 450 nm is measured to quantitate the binding. […]

[5] = target: T1, pAkt2 (active His6-tagged Akt2); design: method as in PMID 26377818; settings: read-out: EC50 against pAkt2; cited from earlier work
[6] = target: macrocycle C2, Cy(YYTYTG-rcm); assay: ELISA; biotinylated peptide (2 μM) immobilised on a streptavidin plate; serial dilutions of active His6-tagged Akt2 in binding buffer (0.1% BSA, 25 mM trisCl pH 7.5, 150 mM NaCl, 0.05% Tween20), overnight at 4 °C; detected with anti-His6 antibody; A450 fitted by non-linear regression

binding to pAkt2 [3] | Compound | further results
 | C[C@@H](O)[C@@H]1NC(=O)[C@H](Cc2ccc(O)cc2)NC(=O)[C@H]([C@@H](C)O)NC(=O)[C@H](Cc2ccc(O)cc2)NC(=O)[C@H](Cc2ccc(O)cc2)NC(=O)[C@](C)(N)CCCCCCC=CCCC[C@@](C)(C(N)=O)NC(=O)CNC1=O [C2, Cy(YYTYTG-rcm)] (H-[R8]YYTYTG[S5]-NH2; staple 1-8; N-terminus and C-terminus assumed) | EC50 [1]: 44 nM and 42 nM
 | NC1(c2ccc(-c3nc4ccn5c(=O)[nH]nc5c4cc3-c3ccccc3)cc2)CCC1 [MK-2206] | inhibition of Akt3 relative to Akt1 and Akt2 [2]: five-fold less
higher binding than C2 | Cy(4fF-4fF-TYTG-rcm) | 
higher signal than C2 | Cy(4fF-YTYTG-rcm) | 
higher signal than C2 | Cy(-Y4fF-TYTG-rcm) | 
decreases binding | Cy(YYT-4fF-TG-rcm) | 
binds to the target pAkt2 protein | Cy(YYTYT-Tz4) [C1] | selectivity for pAkt2 over other pAkt isoforms ([3]; 25 nM His6-pAkt1, pAkt2, pAkt3): selective for pAkt2 over the other two isoforms; binding to target phosphorylated chemical epitope [4]: better binding affinity for target chemical; also recorded: binds significantly better than the linear non-cyclized; also recorded: is a better binder than the latter; EC50 [5]: 120 nM
does not | Cy(YYTYTG-Tz4) | 
show no binding | Cy(YYTY’T’Grcm) | 
show no binding | Cy(Y’YTY’TGrcm) | 
 | full-length active His6-tagged Akt2, phosphorylated at Ser474 (pAkt2) (from UniProt P31751 1-481) (enzyme) | EC50 [6]: 44 nM
